The source of these data is patent publication US20050208678A1, “Anti-fusion assay” (priority 2001, published 2005).

Where no end group is shown, it is not given here.

The subject of one assay is IQN17. Kind of assay: Binding of Alexa-C28 to IQN17, titration measured by capillary zone electrophoresis. As to conditions: 5 μM Alexa-C28, increasing concentration of IQN17, FIG. 3. Further details: species or system HIV-1. The protocol:
Eckert et al., Cell 99, 103-115 (1999). C28 was labeled with the fluorescent molecule, Alexa-430 (Molecular Probes) at its carboxyl terminal (Alexa-C28). The binding was measured by titration of labeled C28 with IQN17. The concentration of bound and unbound C28 was measured by capillary zone electrophoresis.
Capillary Electrophoresis Separations. Capillary electrophoresis experiments were conducted on a Beckman Coulter P/ACE System MDQ and a Spectrumedix 9610HTS. […] Separations were conducted with an applied voltage of 30 kV. The capillaries used in the Spectrumedix 9610HTS has an inner diameter of 50 μm, effective length of 50 cm, and an inner surface of fused silica. Separations were conducted with an applied voltage of 13 kV. Separation buffer was 20 mM Sodium Borate, pH=8.5. Peptides traveling passed a fluorescence detector were excited by a laser emitting at 488 nm. The peaks were analyzed using software packages supplied by the instrument companies. In the figures, RFU refers to relative fluorescence units.
Binding of C28 to IQN17: Peptide concentrations were determined by weight. […] The binding affinity of C28 to IQN-17 was determined by a capillary electrophoresis (FIG. 3). […]
The area of the Alexa-C28 peaks in increasing concentrations of IQN-17 was analyzed in comparison to the area of Alexa-C28 in the absence of IQN-17 by capillary zone electrophoresis. […]

The target in assay [1] is IQN17 (HIV-1 (gp41 segment); GCN4-pIQI segment designed).

As for “Alexa-C28: C28 labeled with the fluorescent molecule Alexa-430 at its carboxyl terminal (WMEWDREINNYTSLIHSLIEESQNQQEK-{Alexa‑430})”, the “amount of unbound peptide (broader peak on the right) in titration” value with IQN17 is given as “decreased from 100% to 0%”.

B1: Alexa-C28 (peptide)
peptide: WMEWDREINNYTSLIHSLIEESQNQQEK
modifications: not checked
B1 gave a percent of C28 bound in assay [1] of 80%.
